Laboratory results taken from patent publication US20230096766A1, “AMINO ACID HAVING FUNCTIONAL GROUP CAPABLE OF INTERMOLECULAR HYDROGEN BONDING, PEPTIDE COMPOUND CONTAINING SAME AND METHOD FOR PRODUCTION THEREOF” (Chugai Seiyaku Kabushiki Kaisha, priority 2018, published 2023).
*1 amine or outer side, *2 acyl side, *3 side chain or, on linkers, in order; H or OH if unused. Where a SMILES comes first, the peptide text is derived from it. Bridges are numbered along the chain shown (N, C = ends). [ ]: non-standard residue; d: D form. The star is where a group is joined. Tyr(3-F) = N[C@@H](Cc1ccc(O)c(F)c1)C(=O)O; NMeF = CN[C@@H](Cc1ccccc1)C(=O)O; NMeGABA = CN(CCCC(=O)[*:2])[*:1]; NMeI = CC[C@H](C)[C@H](NC)C(=O)O; NMeβAla = CN(CCC(=O)[*:2])[*:1]; NMeD = CN[C@@H](CC(=O)O)C(=O)O; NMeL = CN[C@@H](CC(C)C)C(=O)O; NMeV = CN[C@H](C(=O)O)C(C)C; NMeA = CN[C@@H](C)C(=O)O; Piperidide = C1CCN(*)CC1; Sar = CNCC(=O)O; tBu = CC(C)(C)*

Experiment: in vitro
Details: human, Caco-2, Caco-2 (cm/sec)

Structure (SMILES)	Papp [×10⁻⁶ cm/s]
CC[C@H](C)[C@@H]1NC(=O)[C@H](CC(C)C)N(C)C(=O)CCCN(C)C(=O)C[C@@H](C(=O)N2CCCCC2)NC(=O)[C@H](CC(C)C)N(C)C(=O)[C@H](C)N(C)C(=O)[C@H]([C@@H](C)O)NC(=O)[C@H](CC(C)C)N(C)C(=O)[C@H](Cc2ccc(O)c(F)c2)NC(=O)[C@H](CC(C)C)N(C)C(=O)[C@H](Cc2ccccc2)N(C)C1=O [pd119] ([NMeGABA][NMeL]I[NMeF][NMeL][Tyr(3-F)][NMeL]T[NMeA][NMeL]D-Piperidide; lactam N-11)	0.16
CC(C)C[C@@H]1NC(=O)[C@H](C)N(C)C(=O)C[C@@H](C(=O)N2CCCCC2)NC(=O)[C@H](CC(C)C)N(C)C(=O)CN(C)C(=O)[C@H](Cc2ccc(O)c(F)c2)NC(=O)[C@H](CC(C)C)N(C)C(=O)[C@H](C)N(C)C(=O)[C@H](C)NC(=O)[C@H](Cc2ccccc2)N(C)C(=O)[C@H](CC(C)C)N(C)C1=O [pd120] ([NMeA]L[NMeL][NMeF]A[NMeA][NMeL][Tyr(3-F)][Sar][NMeL]D-Piperidide; lactam N-11)	0.23
CC(C)C[C@H]1C(=O)N[C@@H](COC(C)(C)C)C(=O)N(C)[C@@H](Cc2ccccc2)C(=O)N(C)[C@@H](C(C)C)C(=O)N[C@H](C(=O)N2CCCCC2)CC(=O)N[C@H](C(C)C)C(=O)N(C)[C@@H](C)C(=O)N[C@@H](C(C)C)C(=O)N(C)[C@@H](CC(C)C)C(=O)N[C@@H](Cc2ccc(O)cc2)C(=O)N(C)CC(=O)N1C [pd121] ([dV][NMeA]V[NMeL]Y[Sar][NMeL]S(tBu)[NMeF][NMeV]D-Piperidide; lactam N-11)	1
CC(C)C[C@H]1C(=O)N[C@H](C(=O)N2CCCCC2)CC(=O)N(C)[C@@H](C)C(=O)N[C@@H](Cc2ccc(O)c(F)c2)C(=O)N(C)[C@@H](CC(C)C)C(=O)N(C)[C@@H](CC(C)C)C(=O)N[C@@H](C(C)C)C(=O)N(C)[C@@H](Cc2ccccc2)C(=O)N(C)[C@@H](CC(C)C)C(=O)N[C@@H]([C@@H](C)O)C(=O)N(C)CC(=O)N1C [pd122] ([NMeA][Tyr(3-F)][NMeL][NMeL]V[NMeF][NMeL]T[Sar][NMeL]D-Piperidide; lactam N-11)	0.46
CC(C)C[C@@H]1NC(=O)[C@H](CC(C)C)N(C)C(=O)[C@H](Cc2ccccc2)N(C)C(=O)CN(C)C(=O)[C@H]([C@@H](C)O)NC(=O)[C@H](CC(C)C)N(C)C(=O)[C@H](Cc2ccc(O)c(F)c2)NC(=O)[C@H](CC(C)C)N(C)C(=O)CN(C)C(=O)C[C@@H](C(=O)N2CCCCC2)NC(=O)[C@H](CC(C)C)N(C)C1=O [pd123] ([Sar][NMeL][Tyr(3-F)][NMeL]T[Sar][NMeF][NMeL]L[NMeL]D-Piperidide; lactam N-11)	0.44
CC[C@H](C)[C@@H]1NC(=O)[C@H](CC(C)C)N(C)C(=O)[C@@H](C)NC(=O)C[C@@H](C(=O)N2CCCCC2)NC(=O)[C@H](C)N(C)C(=O)[C@H](Cc2ccccc2)N(C)C(=O)[C@H](COC(C)(C)C)NC(=O)[C@H](CC(C)C)N(C)C(=O)CN(C)C(=O)[C@H](Cc2ccc(O)c(F)c2)NC(=O)[C@H](CC(C)C)N(C)C1=O [pd124] ([dA][NMeL]I[NMeL][Tyr(3-F)][Sar][NMeL]S(tBu)[NMeF][NMeA]D-Piperidide; lactam N-11)	0.32
CC[C@H](C)[C@@H]1NC(=O)[C@H](C(C)C)N(C)C(=O)CCCN(C)C(=O)C[C@@H](C(=O)N2CCCCC2)NC(=O)[C@H](CC(C)C)N(C)C(=O)[C@H](C)N(C)C(=O)[C@H](Cc2ccc(O)cc2)NC(=O)[C@H](CC(C)C)N(C)C(=O)[C@H](COC(C)(C)C)NC(=O)[C@H](Cc2ccccc2)N(C)C(=O)[C@H](CC(C)C)N(C)C1=O [pd125] ([NMeGABA][NMeV]I[NMeL][NMeF]S(tBu)[NMeL]Y[NMeA][NMeL]D-Piperidide; lactam N-11)	0.45
CC[C@H](C)[C@H]1C(=O)N[C@@H](Cc2ccc(O)cc2)C(=O)N(C)CC(=O)N(C)[C@@H](CC(C)C)C(=O)N[C@H](C(=O)N2CCCCC2)CC(=O)N(C)[C@@H](C)C(=O)N[C@@H](C(C)C)C(=O)N(C)[C@@H](CC(C)C)C(=O)N(C)[C@@H](CC(C)C)C(=O)N[C@@H](C)C(=O)N(C)[C@@H](Cc2ccccc2)C(=O)N1C [pd126] ([NMeA]V[NMeL][NMeL]A[NMeF][NMeI]Y[Sar][NMeL]D-Piperidide; lactam N-11)	0.42
CC(C)C[C@@H]1NC(=O)[C@H](Cc2ccccc2)N(C)C(=O)[C@@H](C(C)C)NC(=O)C[C@@H](C(=O)N2CCCCC2)NC(=O)[C@H](C)N(C)C(=O)[C@H](CC(C)C)N(C)C(=O)[C@H](COC(C)(C)C)NC(=O)[C@H](CC(C)C)N(C)C(=O)CN(C)C(=O)[C@H](Cc2ccc(O)cc2)NC(=O)[C@H](CC(C)C)N(C)C1=O [pd127] ([dV][NMeF]L[NMeL]Y[Sar][NMeL]S(tBu)[NMeL][NMeA]D-Piperidide; lactam N-11)	0.13
CC(C)C[C@@H]1NC(=O)[C@H](Cc2ccccc2)N(C)C(=O)[C@@H](C(C)C)NC(=O)C[C@@H](C(=O)N2CCCCC2)NC(=O)[C@H](CC(C)C)N(C)C(=O)[C@H](CC(C)C)N(C)C(=O)[C@H](Cc2ccc(O)c(F)c2)NC(=O)[C@H](CC(C)C)N(C)C(=O)CN(C)C(=O)[C@H]([C@@H](C)O)NC(=O)[C@H](CC(C)C)N(C)C1=O [pd128] ([dV][NMeF]L[NMeL]T[Sar][NMeL][Tyr(3-F)][NMeL][NMeL]D-Piperidide; lactam N-11)	0.17
CC[C@H](C)[C@@H]1NC(=O)[C@H](CC(C)C)N(C)C(=O)CCCN(C)C(=O)C[C@@H](C(=O)N2CCCCC2)NC(=O)[C@H](CC(C)C)N(C)C(=O)[C@H](C)N(C)C(=O)[C@H](Cc2ccc(O)cc2)NC(=O)[C@H](CC(C)C)N(C)C(=O)[C@H](COC(C)(C)C)NC(=O)[C@H](CC(C)C)N(C)C(=O)[C@H](Cc2ccccc2)N(C)C1=O [pd129] ([NMeGABA][NMeL]I[NMeF][NMeL]S(tBu)[NMeL]Y[NMeA][NMeL]D-Piperidide; lactam N-11)	0.16
CC[C@H](C)[C@H]1C(=O)N[C@@H]([C@@H](C)O)C(=O)N(C)CC(=O)N(C)[C@@H](C)C(=O)N[C@H](C(=O)N2CCCCC2)CC(=O)N(C)[C@@H](C)C(=O)N[C@@H](C(C)C)C(=O)N(C)[C@@H](CC(C)C)C(=O)N(C)[C@@H](Cc2ccccc2)C(=O)NC(COc2cccc(Cl)c2)C(=O)N(C)[C@@H](Cc2ccccc2)C(=O)N1C (some centres unmarked) [pd186]	1.8
CC(C)C[C@@H]1NC(=O)[C@H](Cc2ccccc2)N(C)C(=O)[C@H](C)N(C)C(=O)C[C@@H](C(=O)N2CCCCC2)N(C)C(=O)[C@H](Cc2ccccc2)N(C)C(=O)[C@H](Cc2ccccc2)N(C)C(=O)[C@H](COC(C)(C)C)NC(=O)[C@H](C(C)C)N(C)C(=O)CN(C)C(=O)[C@H]([C@@H](C)O)NC(=O)[C@H](CC(C)C)N(C)C1=O [pd202] ([NMeA][NMeF]L[NMeL]T[Sar][NMeV]S(tBu)[NMeF][NMeF][NMeD]-Piperidide; lactam N-11)	2.1
CC(C)C[C@@H]1NC(=O)[C@H](Cc2ccccc2)N(C)C(=O)[C@@H]2CCCN2C(=O)C[C@@H](C(=O)N2CCCCC2)NC(=O)[C@H](Cc2ccccc2)N(C)C(=O)[C@H](Cc2ccccc2)N(C)C(=O)[C@H](COC(C)(C)C)NC(=O)[C@H](CC(C)C)N(C)C(=O)CN(C)C(=O)[C@H]([C@@H](C)O)NC(=O)[C@H](CC(C)C)N(C)C1=O [pd203] (P[NMeF]L[NMeL]T[Sar][NMeL]S(tBu)[NMeF][NMeF]D-Piperidide; lactam N-11)	2.1
CC(C)C[C@@H]1NC(=O)[C@H](C)N(C)C(=O)C[C@@H](C(=O)N2CCCCC2)NC(=O)[C@H](CC(C)C)N(C)C(=O)CN(C)C(=O)[C@H]([C@@H](C)O)NC(=O)[C@H](Cc2ccccc2)N(C)C(=O)[C@H](Cc2ccccc2)N(C)C(=O)[C@H](CC(C)C)NC(=O)[C@H](Cc2ccccc2)N(C)C(=O)[C@H](CC(C)C)N(C)C1=O [pd204] ([NMeA]L[NMeL][NMeF]L[NMeF][NMeF]T[Sar][NMeL]D-Piperidide; lactam N-11)	2
CC(C)C[C@@H]1NC(=O)[C@H](Cc2ccccc2)N(C)C(=O)[C@H]2CCCN2C(=O)C[C@@H](C(=O)N2CCCCC2)NC(=O)[C@H](Cc2ccccc2)N(C)C(=O)[C@H](Cc2ccccc2)N(C)C(=O)[C@H](COC(C)(C)C)NC(=O)[C@H](CC(C)C)N(C)C(=O)CN(C)C(=O)[C@H]([C@@H](C)O)NC(=O)[C@H](CC(C)C)N(C)C1=O [pd206] ([dP][NMeF]L[NMeL]T[Sar][NMeL]S(tBu)[NMeF][NMeF]D-Piperidide; lactam N-11)	1.8
CC(C)C[C@@H]1NC(=O)[C@H](Cc2ccccc2)N(C)C(=O)[C@H](CC(C)C)N(C)C(=O)CCN(C)C(=O)C[C@@H](C(=O)N2CCCCC2)NC(=O)[C@H](CC(C)C)N(C)C(=O)[C@H](Cc2ccccc2)N(C)C(=O)[C@H]([C@@H](C)O)NC(=O)[C@H](Cc2ccccc2)N(C)C1=O [pd207] ([NMeβAla][NMeL][NMeF]L[NMeF]T[NMeF][NMeL]D-Piperidide; lactam N-9)	1.7
CC(C)C[C@@H]1NC(=O)[C@H](Cc2ccccc2)N(C)C(=O)[C@H](COC(C)(C)C)NC(=O)[C@H](Cc2ccccc2)N(C)C(=O)[C@H](C)N(C)C(=O)[C@H](CC(C)C)N(C)C(=O)[C@@H](C)NC(=O)C[C@@H](C(=O)N2CCCCC2)N(C)C(=O)[C@H](Cc2ccccc2)N(C)C(=O)[C@H]([C@@H](C)O)NC(=O)[C@H](C(C)C)N(C)C1=O [pd208] ([dA][NMeL][NMeA][NMeF]S(tBu)[NMeF]L[NMeV]T[NMeF][NMeD]-Piperidide; lactam N-11)	1.7
CC(C)C[C@@H]1NC(=O)[C@H](Cc2ccccc2)N(C)C(=O)[C@H](C)NC(=O)C[C@@H](C(=O)N2CCCCC2)N(C)C(=O)[C@H](Cc2ccccc2)N(C)C(=O)[C@H](Cc2ccccc2)N(C)C(=O)[C@H](COC(C)(C)C)NC(=O)[C@H](CC(C)C)N(C)C(=O)CN(C)C(=O)[C@H]([C@@H](C)O)NC(=O)[C@H](CC(C)C)N(C)C1=O [pd209] (A[NMeF]L[NMeL]T[Sar][NMeL]S(tBu)[NMeF][NMeF][NMeD]-Piperidide; lactam N-11)	1.7
CC(C)C[C@H]1C(=O)N[C@@H](COC(C)(C)C)C(=O)N(C)[C@@H](Cc2ccccc2)C(=O)N(C)[C@@H](CC(C)C)C(=O)N[C@H](C(=O)N2CCCCC2)CC(=O)N[C@H](C(C)C)C(=O)N(C)[C@@H](Cc2ccccc2)C(=O)N[C@@H](C(C)C)C(=O)N(C)[C@@H](Cc2ccccc2)C(=O)N[C@@H]([C@@H](C)O)C(=O)N(C)CC(=O)N1C [pd210] ([dV][NMeF]V[NMeF]T[Sar][NMeL]S(tBu)[NMeF][NMeL]D-Piperidide; lactam N-11)	1.6
